Laboratory results from ChEMBL document CHEMBL1130923, “Synthesis and biological activity of 2-methyl-20-epi analogues of 1 alpha,25-dihydroxyvitamin D3” (1998).

What was measured:
Rattus norvegicus = species on record: Rattus norvegicus; assay: Bone calcium mobilization was tested on normal SD male rats and serum calcium level was reported; type: functional; set-up: unit not given beside the values
HL-60 = assay: Cell differentiation activity towards HL-60 cells was assessed in terms of NTB reactivity; type: functional, Homo sapiens
[1] = target: T1, Vitamin D3 receptor (Bos taurus) (UniProt Q28037); assay: Affinity for bovine thymus VDR vitamin D receptor
T1 sequence (whole entry): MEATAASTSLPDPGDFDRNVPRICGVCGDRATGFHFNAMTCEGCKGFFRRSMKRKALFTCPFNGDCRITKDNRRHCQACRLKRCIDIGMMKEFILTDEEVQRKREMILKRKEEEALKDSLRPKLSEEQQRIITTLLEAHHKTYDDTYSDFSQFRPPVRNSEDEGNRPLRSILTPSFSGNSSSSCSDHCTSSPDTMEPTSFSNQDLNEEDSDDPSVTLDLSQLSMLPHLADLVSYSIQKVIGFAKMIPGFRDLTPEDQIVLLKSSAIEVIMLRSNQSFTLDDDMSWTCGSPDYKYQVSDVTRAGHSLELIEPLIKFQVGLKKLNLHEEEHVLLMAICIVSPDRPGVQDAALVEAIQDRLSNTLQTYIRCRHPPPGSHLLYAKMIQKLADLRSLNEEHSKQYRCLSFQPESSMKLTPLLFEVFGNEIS

Row | Compound | Activity (Rattus norvegicus) | Activity (HL-60) | Activity [1]
1 | C=C1/C(=C\C=C2/CCC[C@]3(C)[C@@H]([C@H](C)CCCC(C)(C)O)CC[C@@H]23)C[C@H](O)[C@H](C)[C@@H]1O | 144 | 730 | 17
2 | C=C1/C(=C\C=C2/CCC[C@]3(C)[C@@H]([C@H](C)CCCC(C)(C)O)CC[C@@H]23)C[C@@H](O)[C@H](C)[C@@H]1O | 655 | 59000 | 1200
3 | C=C1/C(=C\C=C2/CCC[C@]3(C)[C@@H]([C@H](C)CCCC(C)(C)O)CC[C@@H]23)C[C@H](O)[C@H](C)[C@H]1O | – | 1 | < 0.1
4 | C=C1/C(=C\C=C2/CCC[C@]3(C)[C@@H]([C@H](C)CCCC(C)(C)O)CC[C@@H]23)C[C@@H](O)[C@@H](C)[C@@H]1O | 115 | 2600 | 160
5 | C=C1/C(=C\C=C2/CCC[C@]3(C)[C@@H]([C@H](C)CCCC(C)(C)O)CC[C@@H]23)C[C@@H](O)[C@@H](C)[C@H]1O | – | 1 | < 0.1
6 | C=C1/C(=C\C=C2/CCC[C@]3(C)[C@@H]([C@H](C)CCCC(C)(C)O)CC[C@@H]23)C[C@@H](O)[C@H](C)[C@H]1O | – | 3 | < 0.1
7 | C=C1/C(=C\C=C2/CCC[C@]3(C)[C@@H]([C@H](C)CCCC(C)(C)O)CC[C@@H]23)C[C@H](O)[C@@H](C)[C@@H]1O | – | 6 | < 0.1
8 | C=C1/C(=C\C=C2/CCC[C@]3(C)[C@@H]([C@H](C)CCCC(C)(C)O)CC[C@@H]23)C[C@@H](O)C[C@@H]1O [CALCITRIOL] | 100 | 100 | 100
9 | C=C1/C(=C\C=C2/CCC[C@]3(C)[C@@H]([C@H](C)CCCC(C)(C)O)CC[C@@H]23)C[C@H](O)[C@@H](C)[C@H]1O | 19 | 190 | 7
